Results taken from US9029337B2, “Modulation of factor 7 expression” (Isis Pharmaceuticals, Inc., priority 2007, dated 2015).
Strand notation (5' to 3'): a small letter for the sugar, then the base; units joined by * are phosphorothioate-linked, units joined directly phosphodiester-linked; [ ] holds rarer units or linkages, { } end groups; capitals alone tell only the bases. e = 2'-O-(2-methoxyethyl) (MOE); [5mC] = 5-methylcytosine; d = 2'-deoxy (DNA)

Experiments:
human Factor 7 mRNA = experiment: Dose-dependent antisense inhibition of human Factor 7 in HepB3 cells, lipofectin; format: cell-based; settings: for percent inhibition of Factor 7 mRNA, relative to untreated control cells: HepB3 cells, approx. 16 hours (Table 14); for percent inhibition of Factor 7: approximately 16 hours
Outline: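 HepB3 cells (4,000/well) lipofectin-transfected with antisense oligonucleotide at 3.125 or 6.25 up to 100 nM for ~16 h. Factor 7 mRNA measured by real-time RT-PCR with primer probe set RTS 2927, adjusted to RIBOGREEN total RNA; expressed as percent inhibition versus untreated control cells.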

[1] = tested on: extrinsic pathway of blood coagulation; experiment: Prothrombin Time (PT) in platelet poor plasma of treated BALB/c mice; format: in vivo, mouse
Protocol: (§1) Prothrombin Time (PT) and Activated Partial Thromboplastin Time (aPTT) were measured using platelet poor plasma (PPP) from mice treated with ISIS 403102. PT and aPTT values provided in Table 20 are reported as International Normalized Ratio (INR) values. INR values for PT and aPTT were determined by dividing the PT or aPTT value for the experimental group by the PT or aPTT for the PBS treated group. This ratio was then raised to the power of the International Sensitivity Index (ISI) of the tissue factor used.
as §1, with “in Table 22 are reported” for “in Table 20 are reported”, “experimental group (i.e. 50 mg/kg treatment with ISIS 403102) by the” for “experimental group by the”
as §1, with “in Table 24 are reported” for “in Table 20 are reported”, “experimental group (i.e. 50 mg/kg treatment with ISIS 403102) by the” for “experimental group by the”

For “407935 (antisense eA*eT*eG*e[5mC]*eA*dT*dG*dG*dT*dG*dA*dT*dG*d[5mC]*dT*eT*e[5mC]*eT*eG*eA) [compound 407935]”, the “percent inhibition of Factor 7 mRNA, relative to untreated control cells” value (human Factor 7 mRNA; 3.125 nM) was 19%, the “percent inhibition of Factor 7 mRNA, relative to untreated control cells” value (human Factor 7 mRNA; 12.5 nM) was 58% and the “percent inhibition of Factor 7 mRNA, relative to untreated control cells” value (human Factor 7 mRNA; 25 nM) was 70%. For the same substance, the “percent inhibition of Factor 7 mRNA, relative to untreated control cells” value (human Factor 7 mRNA; 50 nM) was 85%, the “percent inhibition of Factor 7 mRNA, relative to untreated control cells” value (human Factor 7 mRNA; 100 nM) was 87% and the “percent inhibition of Factor 7 mRNA, relative to untreated control cells” value (human Factor 7 mRNA) was 39%. The “percent inhibition of Factor 7” value (human Factor 7 mRNA; Table 3, 3.125 nM) was 57%, the “percent inhibition of Factor 7” value (human Factor 7 mRNA; Table 3, 6.25 nM) was 76% and the “percent inhibition of Factor 7” value (human Factor 7 mRNA; Table 3, 12.5 nM) was 78%. The “percent inhibition of Factor 7” value (human Factor 7 mRNA; Table 3, 25.0 nM) was 89%, the “percent inhibition of Factor 7” value (human Factor 7 mRNA; Table 3, 50.0 nM) was 90% and the “percent inhibition of Factor 7” value (human Factor 7 mRNA; Table 3, 100.0 nM) was 89%. The “percent inhibition of Factor 7” value (human Factor 7 mRNA; Table 7, 6.25 nM) was 38%, the “percent inhibition of Factor 7” value (human Factor 7 mRNA; Table 7, 12.5 nM) was 53% and the “percent inhibition of Factor 7” value (human Factor 7 mRNA; Table 7, 25.0 nM) was 70%. For the same substance, the “percent inhibition of Factor 7” value (human Factor 7 mRNA; Table 7, 50.0 nM) was 82% and the “percent inhibition of Factor 7” value (human Factor 7 mRNA; Table 7, 100.0 nM) was 86%.

With “407939 (antisense eT*eG*e[5mC]*eA*eG*d[5mC]*d[5mC]*d[5mC]*dG*dG*d[5mC]*dA*d[5mC]*d[5mC]*d[5mC]*eA*eG*e[5mC]*eG*eA) [compound 407939]” the “percent inhibition of Factor 7 mRNA, relative to untreated control cells” value (human Factor 7 mRNA; 3.125 nM) was 17%, the “percent inhibition of Factor 7 mRNA, relative to untreated control cells” value (human Factor 7 mRNA; 12.5 nM) was 57% and the “percent inhibition of Factor 7 mRNA, relative to untreated control cells” value (human Factor 7 mRNA; 25 nM) was 75%. For the same substance, the “percent inhibition of Factor 7 mRNA, relative to untreated control cells” value (human Factor 7 mRNA; 50 nM) was 80%, the “percent inhibition of Factor 7 mRNA, relative to untreated control cells” value (human Factor 7 mRNA; 100 nM) was 83% and the “percent inhibition of Factor 7 mRNA, relative to untreated control cells” value (human Factor 7 mRNA) was 35%. The “percent inhibition of Factor 7” value (human Factor 7 mRNA; Table 3, 3.125 nM) was 62%, the “percent inhibition of Factor 7” value (human Factor 7 mRNA; Table 3, 6.25 nM) was 79% and the “percent inhibition of Factor 7” value (human Factor 7 mRNA; Table 3, 12.5 nM) was 83%. For the same substance, the “percent inhibition of Factor 7” value (human Factor 7 mRNA; Table 3, 25.0 nM) was 91%, the “percent inhibition of Factor 7” value (human Factor 7 mRNA; Table 3, 50.0 nM) was 92% and the “percent inhibition of Factor 7” value (human Factor 7 mRNA; Table 3, 100.0 nM) was 92%. The “percent inhibition of Factor 7” value (human Factor 7 mRNA; Table 7, 6.25 nM) was 37%, the “percent inhibition of Factor 7” value (human Factor 7 mRNA; Table 7, 12.5 nM) was 57% and the “percent inhibition of Factor 7” value (human Factor 7 mRNA; Table 7, 25.0 nM) was 77%. For the same substance, the “percent inhibition of Factor 7” value (human Factor 7 mRNA; Table 7, 50.0 nM) was 84% and the “percent inhibition of Factor 7” value (human Factor 7 mRNA; Table 7, 100.0 nM) was 87%.

For “CCATAGAACAGCTTCACAGG (sugars from the 5' end e5 d10 e5, backbone and methylation of C not given here) [ISIS 403102]”, the “PT INR” value ([1]; BALB/c mice, 5 mg/kg, relative to PBS treated group) was 1.09, the “PT INR” value ([1]; BALB/c mice, 10 mg/kg, relative to PBS treated group) was 1.33 and the “PT INR” value ([1]; BALB/c mice, 25 mg/kg, relative to PBS treated group) was 2.33. The “PT INR” value ([1]; BALB/c mice, 50 mg/kg, 1 dose, 1 day after last dose, relative to PBS group) was 1.04 INR, the “PT INR” value ([1]; BALB/c mice, 50 mg/kg, 1 dose, 3 days after last dose, relative to PBS group) was 1.20 INR and the “PT INR” value ([1]; BALB/c mice, 50 mg/kg, 2 doses, 3 days after last dose, relative to PBS group) was 1.43 INR. The “PT INR” value ([1]; BALB/c mice, 50 mg/kg, 4 doses, 3 days after last dose, relative to PBS group) was 2.13 INR, the “PT INR” value ([1]; BALB/c mice, 50 mg/kg, 6 doses, 2 days after last dose, relative to PBS group) was 1.64 INR and the “PT INR” value ([1]; BALB/c mice, 50 mg/kg, 6 doses, 7 days after last dose, relative to PBS group) was 2.08 INR. For the same substance, the “PT INR” value ([1]; BALB/c mice, 50 mg/kg, 6 doses, 14 days after last dose, relative to PBS group) was 1.37 INR, the “PT INR” value ([1]; BALB/c mice, 50 mg/kg, 6 doses, 28 days after last dose, relative to PBS group) was 0.96 INR and the “PT INR” value ([1]; BALB/c mice, 50 mg/kg, 6 doses, 42 days after last dose, relative to PBS group) was 1.00 INR. For the same substance, the “PT INR” value ([1]; BALB/c mice, 50 mg/kg, 6 doses, 56 days after last dose, relative to PBS group) was 0.99 INR, the “PT INR” value ([1]; BALB/c mice, 50 mg/kg, relative to PBS treated group) was 4.37 and the “PT INR” value ([1]; BALB/c mice, single dose 50 mg/kg, day 1) was 1.11. For the same substance, the “PT INR” value ([1]; BALB/c mice, single dose 50 mg/kg, day 2) was 1.64, the “PT INR” value ([1]; BALB/c mice, single dose 50 mg/kg, day 3) was 1.81 and the “PT INR” value ([1]; BALB/c mice, single dose 50 mg/kg, day 4) was 1.97. The “PT INR” value ([1]; BALB/c mice, single dose 50 mg/kg, day 6) was 1.59, the “PT INR” value ([1]; BALB/c mice, single dose 50 mg/kg, day 8) was 1.55 and the “PT INR” value ([1]; BALB/c mice, single dose 50 mg/kg, day 12) was 1.30. For the same substance, the “PT INR” value ([1]; BALB/c mice, single dose 50 mg/kg, day 24) was 1.12, the “PT INR” value ([1]; BALB/c mice, single dose 50 mg/kg, day 56) was 1.10 and the “PT compared to the control” value ([1]; Example 11, 5-50 mg/kg twice a week for 3 weeks) was “significantly prolonged”. For the same substance, the PT ([1]; Example 13, 6 doses, from day 7 to day 56) was “decreased”, the “PT INR” value ([1]; single dose 50 mg/kg, day 1) was 1.11 and the “PT INR” value ([1]; single dose 50 mg/kg, day 4) was 1.97. For the same substance, the “PT INR” value ([1]; single dose 50 mg/kg, day 56) was 1.10.
